System: normal rat
Assay: Maltose load in normal rat, single administration, blood glucose levels
Format: in vivo
Details: maltose 2 g/kg load
Procedure: Maltose was administered to a normal rat at a dosage of 2 g per kg of the body weight. Subsequently, an extract obtained by extracting the fermented tea obtained by means of tea-rolling processing with hot water was administered to the rat at a dosage of 20 mg per kg of the body weight, or a product was administered to the rat at a dosage of 20 mg per kg of the body weight, in which a plant in Sri Lanka, one of the materials having high activities with the highest level among the materials reported heretofore (J. Agri. Food. Chem. 2004) was extracted with methanol, then concentrated, and then freeze-dried, followed by dissolving the freeze-dried product in water. 30 minutes, 60 minutes, and 120 minutes after the administration, the blood glucose levels were measured.
As an indication of 50% reduction of the elevation of blood glucose levels, EC50 is employed.
Maltose was administrated to a normal rat at a dosage of 2 g per kg of the body weight. Subsequently, an extract obtained by extracting the fermented tea obtained by means of tea-rolling processing with hot water was administered at a dosage of 10 mg per kg of the body weight or 20 mg per kg of the body weight. A decreasing rate of the total blood glucose level area up to 120 minutes after carrying out carbohydrate load (AUCO-120) is shown in Table 6.

C[C@H]1O[C@H](O[C@H]2[C@H](O)[C@@H](O)[C@@H](O[C@H]3[C@H](O)[C@@H](O)C(O)O[C@@H]3CO)O[C@@H]2CO)[C@H](O)[C@@H](O)[C@@H]1N[C@H]1C=C(CO)[C@@H](O)[C@H](O)[C@H]1O (stereo partly shown) [Acarbose, acarbose]
EC50 (50% reduction of the elevation of blood glucose levels): 3.1 mg/kg
